According to article PMC7997032, “Organic synthesis and anti-influenza A virus activity of cyclobakuchiols A, B, C, and D” (PLoS ONE, 2021):
Where “and” joins values, the source holds several entries; their conditions need not be identical. Equal values may be shown once.

Test system: MDCK cells
Assay: MTT assay (cytotoxicity against MDCK cells)
Type: cell-based, canine
Details: MDCK cells; for MTT, DMSO as 100 (DMSOを 100として), ave / MTT 72h AVE (DMSO = 100): 72h; for MTT, DMSO as 100 (DMSOを 100として), ave: mean of 5 wells (200409 #1 and #3); for MTT 72h AVE (DMSO = 100): summary AVE; for MTT 24h, 570-650nm, DMSO as 100, single replicate: individual wells (200331; 200403 #2 1,2; 200403 #3 1,2); for 570-650nm (MTT absorbance, single wells) / 570-650nm ave (mean MTT absorbance of 5 wells) / MTT absorbance with DMSO as 100 (DMSOを 100として), single wells: MTT 72h; for 570-650nm (MTT absorbance, single wells): experiments #1-#3, duplicate wells; for MTT absorbance with DMSO as 100 (DMSOを 100として), single wells: relative to mean of DMSO
Protocol: 1–5 (0.8–100 μM) were prepared in DMSO (100 μM, 1%; 50 μM, 0.5%; 25 μM, 0.25%; 12.5 μM, 0.125%; 6.3 μM, 0.063%; 3.1 μM, 0.031%; 1.6 μM, 0.016%; 0.8 μM, 0.008%) and mixed with infection medium (DMEM supplemented with 1% bovine serum albumin (BSA; Wako), P/S and 4 mM L-glutamine). The resulting mixture was added to the cells and incubated for 24 or 72 h at 37°C in the presence of 5% CO2. After incubation, cell viability was determined using an MTT cell count kit (Nacalai Tesque) according to the manufacturer’s instructions, as previously described.

With `C=C[C@]1(C)CC[C@H](C(=C)C)[C@@H](c2ccc(O)cc2)C1` [Cyclo. A] the “MTT, DMSO as 100 (DMSOを 100として), ave” value (0.78uM) was 105.716, the “MTT, DMSO as 100 (DMSOを 100として), ave” value (1.56uM) was 110.791 and the “MTT, DMSO as 100 (DMSOを 100として), ave” value (3.125uM) was 135.974. The “MTT 72h AVE (DMSO = 100)” value (6.25 (uM)) was 127.594, the “MTT 72h AVE (DMSO = 100)” value (12.5 (uM)) was 109.498 and the “MTT 72h AVE (DMSO = 100)” value (25 (uM)) was 139.303. The “MTT 72h AVE (DMSO = 100)” value (50 (uM)) was 115.79, the “MTT 72h AVE (DMSO = 100)” value (100 (uM)) was 76.9772 and the “MTT 24h, AVE (DMSO as 100)” value (24 h, 0.78 uM, mean of 5 wells from 3 experiments, relative to DMSO = 100) was 98.7342. The “MTT 24h, 570-650nm, DMSO as 100, single replicate” value (from here on “MTT 24h … single replicate”) (1.56uM) was 96.4276 and 83.3373 and 92.051 and 113.855 and 70.8632, the “MTT 24h, 570-650nm, DMSO as 100, ave” value (1.56uM, mean of 5 wells from 3 experiments) was 91.3068 and the “MTT 24h … single replicate” value (3.125uM) was 90.7466 and 86.7485 and 103.011 and 110.013 and 65.2713. The “MTT 24h, 570-650nm, DMSO as 100, ave” value (3.125uM, mean of 5 wells from 3 experiments) was 91.158, the “MTT 24h … single replicate” value (6.25uM) was 105.57 and 88.5259 and 94.0239 and 117.378 and 78.8606 and the “MTT 24h, 570-650nm, DMSO as 100, ave” value (6.25uM, mean of 5 wells from 3 experiments) was 96.8717. For the same molecule, the “MTT 24h … single replicate” value (12.5uM) was 102.53 and 101.147 and 92.3748 and 125.129 and 78.3815, the “MTT 24h, 570-650nm, DMSO as 100, ave” value (12.5uM, mean of 5 wells from 3 experiments) was 99.9126 and the “MTT 24h … single replicate” value (25uM) was 98.9543 and 93.1175 and 86.0556 and 130.26 and 81.3877. For the same molecule, the “MTT 24h, 570-650nm, DMSO as 100, ave” value (25uM, mean of 5 wells from 3 experiments) was 97.9551, the “MTT 24h … single replicate” value (50uM) was 112.693 and 118.709 and 75.6574 and 146.7 and 98.6391 and the “MTT 24h, 570-650nm, DMSO as 100, ave” value (50uM, mean of 5 wells from 3 experiments) was 110.48. For the same molecule, the “MTT 24h … single replicate” value (100uM) was 18.7526 and 22.4148 and 109.83 and 20.6307 and 19.4099, the “MTT 24h, 570-650nm, DMSO as 100, ave” value (100uM, mean of 5 wells from 3 experiments) was 38.2076 and the “570-650nm (MTT absorbance, single wells)” value (0.78uM) was 0.7522 and 1.0518 and 0.8482 and 0.7789 and 0.8023 and 0.8685. The “570-650nm (MTT absorbance, single wells)” value (3.13uM (3.125uM in summary block)) was 0.6647 and 0.8265 and 0.8832 and 1.0096 and 1.017 and 1.0051, the “570-650nm ave (mean MTT absorbance of 5 wells)” value (“570-650nm ave” for short) (6.25uM) was 0.8727 and the “570-650nm (MTT absorbance, single wells)” value (6.25uM) was 0.8664 and 0.8077 and 0.726 and 1.0037 and 0.9599 and 0.9185. For the same molecule, the “MTT absorbance with DMSO as 100 (DMSOを 100として), single wells” value (“MTT absorbance with DMSO” below) (6.25uM) was 118.085 and 106.14 and 146.74 and 140.336 and 126.667, the “570-650nm ave” value (12.5uM) was 0.8716 and the “570-650nm (MTT absorbance, single wells)” value (12.5uM) was 0.7966 and 0.8514 and 0.5539 and 1.0521 and 0.9774 and 0.9778. For the same molecule, the “MTT absorbance with DMSO” value (12.5uM) was 69.5889 and 132.18 and 122.795 and 122.845 and 100.08, the “570-650nm ave” value (25uM) was 1.0477 and the “570-650nm (MTT absorbance, single wells)” value (25uM) was 0.9324 and 1.0073 and 0.9924 and 1.0024 and 1.1748 and 1.1365. For the same molecule, the “MTT absorbance with DMSO” value (25uM) was 131.951 and 133.28 and 156.203 and 151.11 and 123.973, the “570-650nm ave” value (50uM) was 1.057 and the “570-650nm (MTT absorbance, single wells)” value (50uM) was 1.0423 and 1.105 and 0.762 and 0.9117 and 1.3276 and 1.24. The “MTT absorbance with DMSO” value (50uM) was 83.4959 and 99.8992 and 145.471 and 135.873 and 114.21 and the “570-650nm ave” value (100uM) was 0.7247.
